Patent US10144715B2, “Piperazine derivatives as liver X receptor modulators” (priority 2014, dated 2018)
Where two headings read alike, the source gives them in different places. Values belong to the compound of their own block, whether it stands above or below them.

Columns and labels:
[1] = biological target: Gal4 DNA binding domain fused to the LBD of LXRα in HEK293 cells (Homo sapiens (Human), UniProt Q13133); assay: LXR luciferase transcriptional reporter gene assay, agonist mode, LXRα; assay type: cell-based; conditions: for EC50: read-out: Cell LXRα EC50
Sequence of Gal4 DNA binding domain fused to the LBD of LXRα in HEK293 cells (Q13133 209-447): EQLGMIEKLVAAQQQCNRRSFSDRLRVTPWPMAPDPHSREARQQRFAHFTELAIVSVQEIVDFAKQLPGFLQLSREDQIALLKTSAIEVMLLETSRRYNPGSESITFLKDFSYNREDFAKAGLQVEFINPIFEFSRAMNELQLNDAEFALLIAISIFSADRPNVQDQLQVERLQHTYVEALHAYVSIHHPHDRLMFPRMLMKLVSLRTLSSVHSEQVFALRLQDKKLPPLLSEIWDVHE

[2] = biological target: LXR α LBD protein (Homo sapiens (Human), UniProt Q13133); assay: LXR α radioligand binding assay (SPA, competition with [3H]TO901317); conditions: read-out: LXRα Binding Ki
Sequence of LXR α LBD protein (Q13133 209-447): as above

[3] = biological target: Gal4 DNA binding domain fused to the LBD of LXRβ in HEK293 cells (Homo sapiens (Human), UniProt P55055); assay: cell-based
Sequence of Gal4 DNA binding domain fused to the LBD of LXRβ in HEK293 cells (P55055 222-460 limits assumed): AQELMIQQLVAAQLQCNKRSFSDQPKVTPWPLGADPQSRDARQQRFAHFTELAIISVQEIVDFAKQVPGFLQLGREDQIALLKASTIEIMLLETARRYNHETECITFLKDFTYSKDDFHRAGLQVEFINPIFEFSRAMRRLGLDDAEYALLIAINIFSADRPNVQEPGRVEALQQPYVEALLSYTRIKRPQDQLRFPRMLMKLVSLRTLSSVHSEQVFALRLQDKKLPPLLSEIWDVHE

[4] = Biological Test Example 2, agonist mode
[5] = Biological Test Example 2, agonist mode, read-out: Cell LXRβ EC50

SMILES: CC(C)[C@@H]1CN(c2cccc(S(C)(=O)=O)c2)CCN1C[C@H]1CC[C@@H](C(F)(F)F)CC1 (single isomer, unassigned) [48-9]
- Cell LXRα efficacy [1]: 3201 (94) %
- EC50 [1]: 3.2 µM
- Ki [2]: 0.49 µM

SMILES: CC(C)[C@@H]1CN(c2cccc(S(C)(=O)=O)c2)CCN1C[C@H]1CC[C@H](C(F)(F)F)CC1 (single isomer, unassigned) [48-10]
- Cell LXRα efficacy [1]: 9657 (80) %
- EC50 [1]: 9.66 µM
- Ki [2]: 1.68 µM

SMILES: CC(C)[C@H]1CN(c2cccc(S(C)(=O)=O)c2)CCN1C[C@H]1CC[C@H](C(F)(F)F)CC1 (single isomer, unassigned) [48-12]
- Cell LXRα efficacy [1]: 363 (66) %
- EC50 [1]: 0.363 µM
- Ki [2]: 0.245 µM

SMILES: CC1(C)CCC(CN2CCN(c3ccc(CO)c(S(C)(=O)=O)c3)C[C@@H]2c2ccccc2)CC1 (single isomer, unassigned) [48-26]
- Cell LXRα efficacy [1]: 364 (73) %
- EC50 ([1]; agonist mode): 0.364 µM
- Ki [2]: 0.039 µM

SMILES: CC1(C)CCC(CN2CCN(c3ccc(CO)c(S(C)(=O)=O)c3)C[C@H]2c2ccccc2)CC1 (single isomer, unassigned) [48-27]
- Cell LXRα efficacy [1]: 18123 (60) %
- EC50 ([1]; agonist mode): 18.1 µM
- Ki [2]: 2.86 µM

SMILES: CS(=O)(=O)c1cccc(N2CCN(C[C@H]3CC[C@H](C(F)(F)F)CC3)[C@H](c3ccccc3Cl)C2)c1 (single isomer, unassigned) [48-47]
- EC50 [1]: > 20 µM
- Cell LXRβ efficacy [3, 4]: 26%
- EC50 [3, 5]: 1.39 µM

SMILES: CC(C)[C@H]1CN(c2ccc(CO)c(S(C)(=O)=O)c2)CCN1C[C@H]1CCN(CC(F)(F)F)C1 (single isomer, unassigned) [48-58]
- Cell LXRα efficacy [1]: 3252 (56) %
- EC50 [1, 4]: 3.25 µM
- Ki ([2]; Biological Test Example 1): > 3.33 µM

SMILES: CC(C)[C@H]1CN(c2ccc(CO)c(S(C)(=O)=O)c2)CCN1C[C@@H]1CCN(CC(F)(F)F)C1 (single isomer, unassigned) [48-59]
- Cell LXRα efficacy [1]: 1189 (54) %
- EC50 [1, 4]: 1.19 µM
- Ki ([2]; Biological Test Example 1): 3.16 µM

SMILES: CS(=O)(=O)c1cccc(N2CCN(C[C@H]3C[C@@H]4[C@H](C3)C4(F)F)[C@H](c3ccccc3)C2)c1 (single isomer, unassigned) [48-65]
- EC50 [1]: > 20 µM
- Cell LXRβ efficacy [3, 4]: 48%
- EC50 [3, 5]: 7.05 µM

SMILES: CCOC(=O)c1csc(-c2ccc(N3CCN(C(=O)OC(C)(C)C)[C@H](C(C)C)C3)cc2S(C)(=O)=O)n1 [2-4, ethyl (R)-2-(4-(4-(tert-butoxycarbonyl)-3-isopropylpiperazin-1-yl)-2-(methylsulfonyl)phenyl)thiazole-4-carboxylate]
- Cell LXRα efficacy [1]: 4227 (62) %
- EC50 ([1]; agonist mode): 4.23 µM
- Ki [2]: 1.07 µM

SMILES: CC(C)[C@@H]1CN(c2ccc(CO)c(S(C)(=O)=O)c2)CCN1c1ccnc(C(N)=O)c1 [4-6, (R)-4-(4-(4-(hydroxymethyl)-3-(methylsulfonyl)phenyl)-2-isopropylpiperazin-1-yl)picolinamide]
- Cell LXRα efficacy [1]: 9385 (44) %
- EC50 ([1]; agonist mode): 9.39 µM
- Ki [2]: > 3.33 µM

- EC50 ([1]; agonist mode): > 20 µM
- Ki [2]: 4.82 µM
SMILES: CC(F)(F)[C@H]1CN(c2cccc(S(C)(=O)=O)c2)CCN1c1nccc(C(F)(F)F)n1 [7-25, (R)-2-(2-(1,1-difluoroethyl)-4-(3-(methylsulfonyl)phenyl)piperazin-1-yl)-4-(trifluoromethyl)pyrimidine]

SMILES: CC(F)(F)[C@@H]1CN(c2cccc(S(C)(=O)=O)c2)CCN1c1nccc(C(F)(F)F)n1 [7-26, (S)-2-(2-(1,1-difluoroethyl)-4-(3-(methylsulfonyl)phenyl)piperazin-1-yl)-4-(trifluoromethyl)pyrimidine]
- Cell LXRα efficacy [1]: 1211 (37) %
- EC50 ([1]; agonist mode): 1.21 µM
- Ki [2]: 0.193 µM

- EC50 [1]: > 20 µM
- Ki [2]: 7.19 µM
SMILES: CS(=O)(=O)c1cccc(N2CCN(c3nccc(C(F)(F)F)n3)[C@@H](C(F)(F)F)C2)c1 [7-27, (R)-2-(4-(3-(methylsulfonyl)phenyl)-2-(trifluoromethyl)piperazin-1-yl)-4-(trifluoromethyl)pyrimidine]

SMILES: CS(=O)(=O)c1cccc(N2CCN(c3nccc(C(F)(F)F)n3)[C@H](C(F)(F)F)C2)c1 [7-28, (S)-2-(4-(3-(methylsulfonyl)phenyl)-2-(trifluoromethyl)piperazin-1-yl)-4-(trifluoromethyl)pyrimidine]
- Cell LXRα efficacy [1]: 2235 (40) %
- EC50 [1]: 2.24 µM
- Ki [2]: 0.422 µM

SMILES: CC(C)[C@@H]1CN(c2cccc(S(C)(=O)=O)c2)CCN1c1ccc(C(F)F)cn1 [7-34, (R)-1-(5-(difluoromethyl)pyridin-2-yl)-2-isopropyl-4-(3-(methylsulfonyl)phenyl)piperazine]
- Cell LXRα efficacy [1]: 13999 (55) %
- EC50 ([1]; agonist mode): 14 µM
- Ki [2]: 3.28 µM

SMILES: CC(C)[C@@H]1CN(c2ccc(F)c(S(C)(=O)=O)c2)CCN1c1ncc(C(F)(F)F)cc1Cl [7-41, (R)-1-(3-chloro-5-(trifluoromethyl)pyridin-2-yl)-4-(4-fluoro-3-(methylsulfonyl)phenyl)-2-isopropylpiperazine]
- Cell LXRα efficacy [1]: 949 (84) %
- EC50 ([1]; agonist mode): 0.949 µM
- Ki [2]: 0.072 µM

SMILES: CC(C)[C@@H]1CN(c2ccc(F)c(S(C)(=O)=O)c2)CCN1c1ncc(C(F)(F)F)cc1[N+](=O)[O-] [7-42, (R)-4-(4-fluoro-3-(methylsulfonyl)phenyl)-2-isopropyl-1-(3-nitro-5-(trifluoromethyl)pyridin-2-yl)piperazine]
- Cell LXRα efficacy [1]: 3110 (46) %
- EC50 ([1]; agonist mode): 3.11 µM
- Ki [2]: 0.623 µM

SMILES: COC(=O)c1ccc(N2CCN(c3ccc(F)c(S(C)(=O)=O)c3)C[C@H]2C(C)C)nc1C(F)(F)F [7-43, methyl (R)-6-(4-(4-fluoro-3-(methylsulfonyl)phenyl)-2-isopropylpiperazin-1-yl)-2-(trifluoromethyl)nicotinate]
- Cell LXRα efficacy [1]: 649 (77) %
- EC50 ([1]; agonist mode): 0.649 µM
- Ki [2]: 0.13 µM

SMILES: Cc1ccc(N2CCN(c3cccc(S(C)(=O)=O)c3)C[C@H]2C(C)C)nn1 [7-46, (R)-3-(2-isopropyl-4-(3-(methylsulfonyl)phenyl)piperazin-1-yl)-6-methylpyridazine]
- Cell LXRα efficacy [1]: 14681 (71) %
- EC50 ([1]; agonist mode): 14.7 µM
- Ki [2]: 13.6 µM

SMILES: CC(C)[C@@H]1CN(c2cccc(S(C)(=O)=O)c2)CCN1c1ccc(C2CC2)nn1 [7-47, (R)-3-cyclopropyl-6-(2-isopropyl-4-(3-(methylsulfonyl)phenyl)piperazin-1-yl)pyridazine]
- Cell LXRα efficacy [1]: 4921 (84) %
- EC50 [1]: 4.92 µM
- Ki [2]: 3.1 µM

SMILES: CC(C)[C@@H]1CN(c2cccc(S(C)(=O)=O)c2)CCN1c1ccc(C(F)(F)F)nn1 [7-48, (R)-3-(2-isopropyl-4-(3-(methylsulfonyl)phenyl)piperazin-1-yl)-6-(trifluoromethyl)pyridazine]
- Cell LXRα efficacy [1]: 2110 (98) %
- EC50 [1]: 2.11 µM
- Ki [2]: 0.877 µM

SMILES: CC(C)[C@@H]1CN(c2ccc(F)c(S(C)(=O)=O)c2)CCN1c1ccc(C(F)(F)F)nn1 [7-49, (R)-3-(4-(4-fluoro-3-(methylsulfonyl)phenyl)-2-isopropylpiperazin-1-yl)-6-(trifluoromethyl)pyridazine]
- Cell LXRα efficacy [1]: 1335 (112) %
- EC50 ([1]; agonist mode): 1.34 µM
- Ki [2]: 0.508 µM

SMILES: CCOC(=O)c1cnc(N2CCN(c3ccc(F)c(S(C)(=O)=O)c3)C[C@H]2CC(C)C)nc1C(F)(F)F [9-7, ethyl (R)-2-(4-(4-fluoro-3-(methylsulfonyl)phenyl)-2-isobutylpiperazin-1-yl)-4-(trifluoromethyl)pyrimidine-5-carboxylate]
- Cell LXRα efficacy [1]: 960 (34) %
- EC50 ([1]; agonist mode): 0.96 µM
- Ki [2]: 0.033 µM

SMILES: CCOC(=O)c1cnc(N2CCN(c3ccc(COC(C)=O)c(S(C)(=O)=O)c3)C[C@H]2C(C)C)nc1C(F)(F)F [9-10, ethyl (R)-2-(4-(4-(acetoxymethyl)-3-(methylsulfonyl)phenyl)-2-isopropylpiperazin-1-yl)-4-(trifluoromethyl)pyrimidine-5-carboxylate]
- Cell LXRα efficacy [1]: 243 (59) %
- EC50 ([1]; agonist mode): 0.243 µM
- Ki [2]: 0.096 µM

SMILES: CCOC(=O)c1cnc(N2CCN(c3ccc(-c4nc(C)no4)c(S(C)(=O)=O)c3)C[C@H]2C(C)C)nc1C(F)(F)F [9-12, ethyl (R)-2-(2-isopropyl-4-(4-(3-methyl-1,2,4-oxadiazol-5-yl)-3-(methylsulfonyl)phenyl)piperazin-1-yl)-4-(trifluoromethyl)pyrimidine-5-carboxylate]
- Cell LXRα efficacy [1]: 15144 (26) %
- EC50 ([1]; agonist mode): 15.1 µM
- Ki [2]: 2.29 µM

- EC50 ([1]; agonist mode): > 20 µM
- Cell LXRβ efficacy [3]: 3001 (13) %
- EC50 [3]: 3 µM
SMILES: CC(C)[C@@H]1CN(c2ccc(F)c(S(C)(=O)=O)c2)CCN1c1ncc(CN)c(C(F)(F)F)n1 [15-2, (R)-(2-(4-(4-fluoro-3-(methylsulfonyl)phenyl)-2-isopropylpiperazin-1-yl)-4-(trifluoromethyl)pyrimidin-5-yl)methanamine]

- EC50 ([1]; agonist mode): > 20 µM
- EC50 [3]: > 20 µM
SMILES: CS(=O)(=O)c1cc(N2CCN(c3ncc(C(=O)O)c(C(F)(F)F)n3)[C@H](c3ccc(F)cc3)C2)ccc1F [16-2, (R)-2-(4-(4-fluoro-3-(methylsulfonyl)phenyl)-2-(4-fluorophenyl)piperazin-1-yl)-4-(trifluoromethyl)pyrimidine-5-carboxylic acid]

SMILES: CS(=O)(=O)c1cccc(N2CCN(C[C@@H]3C[C@@H]4[C@H](C3)C4(F)F)[C@H](c3ccccc3)C2)c1 [48-67, (R)-1-(((1R,3s,5S)-6,6-difluorobicyclo[3.1.0]hexan-3-yl)methyl)-4-(3-(methylsulfonyl)phenyl)-2-phenylpiperazine]
- Cell LXRα efficacy [1]: 7547 (30) %
- EC50 [1]: 7.55 µM
- Cell LXRβ efficacy [3, 4]: 47%
- EC50 [3, 5]: 2.4 µM

- Cell LXRα efficacy [1]: 1482 (31) %
- EC50 [1]: 1.48 µM
- Cell LXRβ efficacy [3]: 139 (14) %
- EC50 [3]: 0.139 µM
SMILES: CC(C)[C@@H]1CN(c2ccc(F)c(S(C)(=O)=O)c2)CCN1c1ncc(Cl)c(C2CC2)n1 [Cpd No 22-1, (R)-5-chloro-4-cyclopropyl-2-(4-(4-fluoro-3-(methylsulfonyl)phenyl)-2-isopropylpiperazin-1-yl)pyrimidine]
